{"source": "patent EP1935986B1", "about": "“Luminogenic and fluorogenic compounds and methods to detect molecules or conditions” (priority 2005, dated 2006)", "key": {"QuantiLum Luciferase": {"target": "T1, QuantiLum Luciferase (Photinus pyralis, UniProt P08659)", "T1 construct": "purchased Promega Corporation E170", "T1 sequence (P08659 whole entry)": "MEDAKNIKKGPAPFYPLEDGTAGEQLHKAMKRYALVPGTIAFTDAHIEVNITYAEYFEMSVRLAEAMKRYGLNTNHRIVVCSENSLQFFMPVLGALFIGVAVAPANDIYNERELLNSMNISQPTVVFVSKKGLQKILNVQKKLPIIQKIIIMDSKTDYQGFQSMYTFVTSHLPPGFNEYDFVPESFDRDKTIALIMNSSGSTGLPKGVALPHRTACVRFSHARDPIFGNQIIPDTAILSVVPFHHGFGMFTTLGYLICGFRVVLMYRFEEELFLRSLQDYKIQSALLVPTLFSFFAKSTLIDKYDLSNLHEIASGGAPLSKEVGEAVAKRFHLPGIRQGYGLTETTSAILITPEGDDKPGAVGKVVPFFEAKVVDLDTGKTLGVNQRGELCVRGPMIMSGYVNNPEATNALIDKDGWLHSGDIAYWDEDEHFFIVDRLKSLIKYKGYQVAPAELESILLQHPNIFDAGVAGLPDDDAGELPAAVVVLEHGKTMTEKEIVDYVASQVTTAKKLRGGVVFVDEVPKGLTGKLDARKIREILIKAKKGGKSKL", "test": "Scaffolds: light emission of luciferin derivatives with QuantiLum luciferase alone, + Co A, + DTT, + Co A and DTT", "format": "biochemical, firefly", "description": "The DTT, Coenzyme A, and QuantiLum stock solutions are the same as those described herein.\nThis solution was diluted 1:1 with water to produce an enzyme solution labeled \"No addition.\" This solution was diluted 1:1 with 400 mM DTT, pH 8.0 to produce a solution labeled +DTT. This solution was diluted 1:1 with 4 mM Coenzyme A to produce a solution labeled + Co A. Finally, this solution was diluted 1:1 with a solution having both 4 mM Coenzyme A and 400 mM DTT to produce a solution labeled +Co A & DTT.\n50 µl samples of these solutions were placed in the wells of luminometer microtiter plates, row A to row G, respeutivly. Row H of the plates was given 50 µl of water.\nReactions in these plates were initiated by addition of 50 µl of solution containing QuantiLum luciferase using a 12 channel micropipette. The solutions added to the rows were: columns 1, 5, and 9 - no addition solution; columns 2, 6, and 10 - + Co A solution; columns 3, 7, and 11 + DTT solution, and; columns 4, 8, and 12 - + Co A and DTT solution. After addition of the enzyme solution to the first row on every plate, a timer was started. After addition of the enzyme solution to the last row on each plate, the plate was sealed and read on a Veritas luminometer."}, "[1]": {"target": "T2, human recombinant monoamine oxidase B (MAO B) (Homo sapiens, UniProt P27338)", "T2 construct": "purchased Sigma Chemical Company M-7441; host or cells: baculovirus infected insect cells (microsomes)", "T2 sequence (P27338 1-520)": "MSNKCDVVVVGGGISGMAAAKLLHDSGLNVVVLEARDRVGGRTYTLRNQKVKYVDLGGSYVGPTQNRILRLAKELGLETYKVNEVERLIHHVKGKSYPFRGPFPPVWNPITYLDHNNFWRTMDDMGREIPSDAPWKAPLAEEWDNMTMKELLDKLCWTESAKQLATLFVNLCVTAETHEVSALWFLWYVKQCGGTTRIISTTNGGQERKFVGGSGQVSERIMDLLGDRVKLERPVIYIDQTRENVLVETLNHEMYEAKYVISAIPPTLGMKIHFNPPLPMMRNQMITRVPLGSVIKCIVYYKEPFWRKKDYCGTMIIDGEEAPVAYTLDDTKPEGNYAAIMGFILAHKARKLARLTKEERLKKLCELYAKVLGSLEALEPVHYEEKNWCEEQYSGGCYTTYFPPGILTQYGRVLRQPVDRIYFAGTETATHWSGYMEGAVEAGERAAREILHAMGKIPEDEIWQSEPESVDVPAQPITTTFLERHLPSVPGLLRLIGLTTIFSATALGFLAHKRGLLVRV", "test": "Two-step luminescent MAO assay with luciferin derivative", "format": "biochemical", "details": "fit of Tables 23-24 (TableCurve)"}, "[2]": {"target": "T3, human recombinant monoamine oxidase A (MAO A) (Homo sapiens, UniProt P21397)", "T3 sequence (P21397 1-527)": "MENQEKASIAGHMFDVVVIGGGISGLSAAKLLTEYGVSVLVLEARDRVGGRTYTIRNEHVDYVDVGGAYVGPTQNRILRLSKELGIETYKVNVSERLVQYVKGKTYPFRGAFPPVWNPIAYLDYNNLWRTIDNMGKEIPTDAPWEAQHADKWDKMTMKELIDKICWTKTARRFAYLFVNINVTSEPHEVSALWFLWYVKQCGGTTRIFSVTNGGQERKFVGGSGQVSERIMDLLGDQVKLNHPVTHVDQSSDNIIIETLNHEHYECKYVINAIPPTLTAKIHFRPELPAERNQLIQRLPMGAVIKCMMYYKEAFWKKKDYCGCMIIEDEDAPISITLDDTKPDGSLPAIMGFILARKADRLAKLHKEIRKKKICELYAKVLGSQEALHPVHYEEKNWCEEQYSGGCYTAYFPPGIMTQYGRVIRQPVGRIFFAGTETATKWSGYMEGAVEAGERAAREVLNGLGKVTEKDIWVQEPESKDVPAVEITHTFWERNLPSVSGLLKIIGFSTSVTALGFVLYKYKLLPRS", "test": "Two-step luminescent MAO assay with luciferin derivative", "details": "for RLUmax: fit of Tables 23-24 (TableCurve)"}, "[3]": {"tested_on": "human recombinant flavin-containing monooxygenase 3 (FMO 3)", "test": "Two-step luminescent FMO assay with luciferin derivative", "format": "biochemical"}, "luciferase": {"tested_on": "luciferase", "test": "No-enzyme control: activity of luciferase towards the luciferin derivative (background luminescence)", "details": "wild type microsomes instead of FMO 3", "description": "The reactions (Table 1) were assembled by first adding the water and 1 M BisTris solutions in individual 0.5 ml microfuge tubes, then adding the other components except for the GST #3 solution. Finally, the GST #3 (Figure 12) solution was added to the reactions, the resulting solution was mixed, and the time of addition noted. […]\nThe GST #3 addition was performed last and the solutions were mixed immediately after addition of GST #3. […] After mixing, the light produced by the solution was measured using a Turner TD 20/20 luminometer.\nAfter assembly, the enzyme stock solutions were diluted 1:10 into 10 mM HEPES, pH 7.5 and the following additions were made to the reactions.\nA 5 µl sample of the luciferol DMF solution was added to each of the reactions above and a timer was started upon the addition of the first luciferol/DMF solution to reaction 1. All reactions were kept at room temperature.\nAfter incubating 5 minutes at room temperature, the light produced by these samples was measured using a Turner TD 20 luminometer.\nTo initiate the conversions, 5 µl of luciferol solution was added to reactions […], 6-9, and 11-15, and 10 µl of luciferol was added to reactions 5 and 10 and the tubes mixed after that addition. Immediately after luciferol addition to reaction 1, a timer was started and the time of luciferol addition to the other tubes noted. After mixing, reaction 11-15 were placed at 37°C.\nAfter incubating 10 minutes at room temperature, the light produced by these samples was read using a Turner TD 20 luminometer (Table 18).\nTo initiate Step 1, 45 µl of enzyme and buffer were added to each well.\nSolution A and Solution B are components of the NADPH Regeneration System (V9510, Promega Corp., Madison WI). […] Solution B contains 40 units/ml glucose-6-phosphate dehydrogenase in 5 mM citrate pH 5.5."}}, "data": [{"smiles": "NCCCOc1ccc2nc(C3=N[C@@H](C(=O)O)CS3)sc2c1", "note": "[MAO-3, 6-Aminopropoxyluciferin]", "values": [{"measurement": "light emission values", "setting": "QuantiLum Luciferase; Derivative Conc. 1.07, Alone", "value": 94583}, {"measurement": "light emission values", "setting": "QuantiLum Luciferase; Derivative Conc. 1.07, Co A", "value": 122510}, {"measurement": "light emission values", "setting": "QuantiLum Luciferase; Derivative Conc. 1.07, Co A + DTT", "value": 52637}, {"measurement": "light emission values", "setting": "QuantiLum Luciferase; Derivative Conc. 1.07, DTT", "value": 111682}, {"measurement": "light emission values", "setting": "QuantiLum Luciferase; Derivative Conc. 3.13, Alone", "value": 131633}, {"measurement": "light emission values", "setting": "QuantiLum Luciferase; Derivative Conc. 3.13, Co A", "value": 176814}, {"measurement": "light emission values", "setting": "QuantiLum Luciferase; Derivative Conc. 3.13, Co A + DTT", "value": 171233}, {"measurement": "light emission values", "setting": "QuantiLum Luciferase; Derivative Conc. 3.13, DTT", "value": 200074}, {"measurement": "light emission values", "setting": "QuantiLum Luciferase; Derivative Conc. 6.25, Alone", "value": 201597}, {"measurement": "light emission values", "setting": "QuantiLum Luciferase; Derivative Conc. 6.25, Co A", "value": 321914}, {"measurement": "light emission values", "setting": "QuantiLum Luciferase; Derivative Conc. 6.25, Co A + DTT", "value": 82531}, {"measurement": "light emission values", "setting": "QuantiLum Luciferase; Derivative Conc. 6.25, DTT", "value": 348398}, {"measurement": "light emission values", "setting": "QuantiLum Luciferase; Derivative Conc. 12.5, Alone", "value": 252130}, {"measurement": "light emission values", "setting": "QuantiLum Luciferase; Derivative Conc. 12.5, Co A", "value": 467021}, {"measurement": "light emission values", "setting": "QuantiLum Luciferase; Derivative Conc. 12.5, Co A + DTT", "value": 509896}, {"measurement": "light emission values", "setting": "QuantiLum Luciferase; Derivative Conc. 12.5, DTT", "value": 525765}, {"measurement": "light emission values", "setting": "QuantiLum Luciferase; Derivative Conc. 25, Alone", "value": 272608}, {"measurement": "light emission values", "setting": "QuantiLum Luciferase; Derivative Conc. 25, Co A", "value": 588881}, {"measurement": "light emission values", "setting": "QuantiLum Luciferase; Derivative Conc. 25, DTT", "value": 733675}, {"measurement": "light emission values", "setting": "QuantiLum Luciferase; Derivative Conc. 50, Alone", "value": 179585}, {"measurement": "light emission values", "setting": "QuantiLum Luciferase; Derivative Conc. 50, Co A", "value": 444494}, {"measurement": "light emission values", "setting": "QuantiLum Luciferase; Derivative Conc. 50, Co A + DTT", "value": 865209}, {"measurement": "light emission values", "setting": "QuantiLum Luciferase; Derivative Conc. 50, DTT", "value": 868903}, {"measurement": "light emission values", "setting": "QuantiLum Luciferase; Derivative Conc. 100, Alone", "value": 348013}, {"measurement": "light emission values", "setting": "QuantiLum Luciferase; Derivative Conc. 100, Co A", "value": 741882}, {"measurement": "light emission values", "setting": "QuantiLum Luciferase; Derivative Conc. 100, Co A + DTT", "value": 1019425}, {"measurement": "light emission values", "setting": "QuantiLum Luciferase; Derivative Conc. 100, DTT", "value": 994617}, {"measurement": "RLUmax", "setting": "[1]", "value": 660}, {"measurement": "RLUmax", "setting": "[2]", "value": 210}]}, {"smiles": "CNCCCOc1ccc2nc(C3=N[C@@H](C(=O)O)CS3)ccc2c1", "note": "[MAO-7, 6-(3-methylaminopropoxy)quinolinyl-lucifexin]", "values": [{"measurement": "relative light units, FMO 3", "setting": "[3]; [MAO-7] 43 µM", "value": 8220, "unit": "RLUs"}, {"measurement": "relative light units, net FMO 3", "setting": "[3]; [MAO-7] 43 µM", "value": 7177, "unit": "RLUs"}, {"measurement": "relative light units, FMO 3", "setting": "[3]; [MAO-7] 86 µM", "value": 13646, "unit": "RLUs"}, {"measurement": "relative light units, net FMO 3", "setting": "[3]; [MAO-7] 86 µM", "value": 12061, "unit": "RLUs"}, {"measurement": "relative light units, FMO 3", "setting": "[3]; [MAO-7] 258 µM", "value": 28987, "unit": "RLUs"}, {"measurement": "relative light units, net FMO 3", "setting": "[3]; [MAO-7] 258 µM", "value": 25395, "unit": "RLUs"}, {"measurement": "relative light units, FMO 3", "setting": "[3]; [MAO-7] 344 µM", "value": 34036, "unit": "RLUs"}, {"measurement": "relative light units, net FMO 3", "setting": "[3]; [MAO-7] 344 µM", "value": 29550, "unit": "RLUs"}, {"measurement": "relative light units, FMO 3", "setting": "[3]; [MAO-7] 516 µM", "value": 40329, "unit": "RLUs"}, {"measurement": "relative light units, net FMO 3", "setting": "[3]; [MAO-7] 516 µM", "value": 34192, "unit": "RLUs"}, {"measurement": "relative light units, FMO 3", "setting": "[3]; [MAO-7] 688 µM", "value": 42707, "unit": "RLUs"}, {"measurement": "relative light units, net FMO 3", "setting": "[3]; [MAO-7] 688 µM", "value": 35494, "unit": "RLUs"}, {"measurement": "Km", "setting": "[3]; fit of Table 33, CHES pH 9.5", "value": "200 ± 20", "unit": "µM"}, {"measurement": "RLUmax", "setting": "[1]", "value": 48}, {"measurement": "RLUmax", "setting": "[2]", "value": 750}, {"measurement": "substrate specificity as indicated by the ratio RLUmax/Km", "setting": "[2]; result in words", "value": "more specific substrate for MAO A"}, {"measurement": "relative light units, control", "setting": "luciferase; [MAO-7] 43 µM", "value": 1043, "unit": "RLUs"}, {"measurement": "relative light units, control", "setting": "luciferase; [MAO-7] 86 µM", "value": 1585, "unit": "RLUs"}, {"measurement": "relative light units, control", "setting": "luciferase; [MAO-7] 258 µM", "value": 3592, "unit": "RLUs"}, {"measurement": "relative light units, control", "setting": "luciferase; [MAO-7] 344 µM", "value": 4486, "unit": "RLUs"}, {"measurement": "relative light units, control", "setting": "luciferase; [MAO-7] 516 µM", "value": 6137, "unit": "RLUs"}, {"measurement": "relative light units, control", "setting": "luciferase; [MAO-7] 688 µM", "value": 7213, "unit": "RLUs"}]}]}
